Calls of active or inactive are those of the source. Cut-off read from the data, not from the text of the source, for most assays here: actives have a measured EC50 and inactives only a lower limit.
Assays:
[1] = system: Streptococcus sp. 'group A'; experiment: Streptococcus pyogenes SK(-)GAS viability under kanamycin – luminescence, BacTiterGlo, confirmation, counter-screen for streptokinase expression inhibitor project, dose response (AID 1900); format: functional, organism-based
Streptococcus = experiment: GAS UMAA2166 growth inhibition – luminescence, BacTiterGlo, counter-screen for streptokinase expression inhibitor project, dose response (AID 1915); format: functional, organism-based;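 note: potency for reduction of bacterial viability or growth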
Streptokinase A = biological target: T1, Streptokinase A (Streptococcus pyogenes serotype M1, UniProt P10520); experiment: viability-normalized secreted streptokinase activity reduction – plasminogen activation absorbance, OD405, dose response (AID 1914); format: functional, Streptococcus pyogenes M1 GAS;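 note: secreted streptokinase activity via plasminogen activation per viability signal from cell pellet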
T1 sequence (P10520 whole entry): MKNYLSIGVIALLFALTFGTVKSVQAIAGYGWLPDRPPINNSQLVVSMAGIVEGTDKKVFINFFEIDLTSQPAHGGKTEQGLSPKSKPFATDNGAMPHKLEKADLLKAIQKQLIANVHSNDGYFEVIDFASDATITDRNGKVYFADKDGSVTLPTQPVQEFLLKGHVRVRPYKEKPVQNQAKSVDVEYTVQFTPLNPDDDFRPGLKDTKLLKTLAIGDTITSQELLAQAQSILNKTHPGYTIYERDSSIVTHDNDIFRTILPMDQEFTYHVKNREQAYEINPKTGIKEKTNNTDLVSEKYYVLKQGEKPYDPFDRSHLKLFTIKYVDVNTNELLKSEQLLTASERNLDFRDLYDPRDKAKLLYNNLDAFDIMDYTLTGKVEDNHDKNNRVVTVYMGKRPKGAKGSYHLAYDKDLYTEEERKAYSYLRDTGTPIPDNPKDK

[2] = NIH3T3 cell viability loss – ATP luminescence, mouse fibroblasts, counter-screen, dose response (AID 2010); format: functional, cell-based;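 note: cells exposed to compound for about 90 hours before reading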
[3] = Trypanosoma cruzi growth suppression in host cells – NIH3T3 host cells, beta-gal luminescence, confirmation (AID 2044); format: functional, cell-based;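 note: intracellular parasites grown in NIH/3T3 mouse fibroblasts as host cells; luminescent beta-galactosidase reporter signal from transgenic T. cruzi replicating inside host cells; inhibitors lower the luminescence signal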
[4] = biological target: T2, Heat shock factor protein 1 (Mus musculus, UniProt P38532); experiment: decrease of HSF1-responsive luciferase luminescence – cell-based, NIH3T3, dose retest, confirmation (AID 2382); format: functional;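 note: NIH3T3 fibroblasts with HSF1-driven luciferase reporter stressed by proteasome inhibitor MG132; luminescence from HSF1-driven luciferase expression after 8 hours of MG132 stress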
T2 sequence (P38532 whole entry): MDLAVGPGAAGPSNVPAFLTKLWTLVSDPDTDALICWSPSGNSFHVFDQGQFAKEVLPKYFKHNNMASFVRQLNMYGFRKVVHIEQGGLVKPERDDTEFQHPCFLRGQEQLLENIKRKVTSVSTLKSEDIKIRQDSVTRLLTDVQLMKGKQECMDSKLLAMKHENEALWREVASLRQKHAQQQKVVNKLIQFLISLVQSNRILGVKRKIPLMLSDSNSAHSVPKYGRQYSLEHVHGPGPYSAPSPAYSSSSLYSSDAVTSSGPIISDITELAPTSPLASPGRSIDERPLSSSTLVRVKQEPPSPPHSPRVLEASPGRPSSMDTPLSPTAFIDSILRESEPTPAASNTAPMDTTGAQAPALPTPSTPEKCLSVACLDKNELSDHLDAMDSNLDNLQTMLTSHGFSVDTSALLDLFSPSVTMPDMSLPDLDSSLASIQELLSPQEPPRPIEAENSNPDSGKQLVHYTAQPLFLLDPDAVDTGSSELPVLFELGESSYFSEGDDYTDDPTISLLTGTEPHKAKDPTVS

[5] = biological target: T3, Rac GTPase-activating protein 1 (Homo sapiens, UniProt Q9H0H5); experiment: blockers of MgcRacGAP-driven Rac1 GTP hydrolysis – biochemical, ADP Hunter fluorescence, primary and confirmatory, confirmation (AID 624330); format: functional
T3 sequence (Q9H0H5 whole entry): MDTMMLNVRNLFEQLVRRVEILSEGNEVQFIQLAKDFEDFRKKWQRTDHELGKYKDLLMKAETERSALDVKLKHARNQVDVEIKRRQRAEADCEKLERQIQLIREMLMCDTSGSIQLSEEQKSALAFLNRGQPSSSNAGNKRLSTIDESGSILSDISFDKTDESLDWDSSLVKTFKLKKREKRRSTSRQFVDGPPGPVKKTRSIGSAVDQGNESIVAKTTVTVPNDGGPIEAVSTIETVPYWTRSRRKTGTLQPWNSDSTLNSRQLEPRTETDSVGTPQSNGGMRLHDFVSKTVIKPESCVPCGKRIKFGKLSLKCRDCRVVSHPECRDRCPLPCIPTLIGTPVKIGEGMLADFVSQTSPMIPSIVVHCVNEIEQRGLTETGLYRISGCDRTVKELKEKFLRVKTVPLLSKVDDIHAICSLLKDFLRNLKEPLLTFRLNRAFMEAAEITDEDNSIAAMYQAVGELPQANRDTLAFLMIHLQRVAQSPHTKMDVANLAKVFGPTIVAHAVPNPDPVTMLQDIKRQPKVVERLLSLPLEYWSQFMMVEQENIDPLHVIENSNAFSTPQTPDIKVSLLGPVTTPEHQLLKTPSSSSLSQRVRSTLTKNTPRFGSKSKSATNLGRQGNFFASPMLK

O=C(/C=C/c1ccccc1)NC(=S)NNC(=O)c1ccco1
EC50 [1]: 3.86 µM (active) | EC50 (Streptococcus): 11.2 µM (active) | EC50 (Streptokinase A): > 150 µM (not active)

CC(C)(C)c1ccc(OCC(=O)Nc2ccc(C(=O)Nc3ccccc3C(=O)O)cc2)cc1
EC50 [1]: 4.27 µM (active) | EC50 (Streptococcus): 22.9 µM (active)

CCOc1ccc(C2Nc3ccc4ccccc4c3-c3c2c(=O)oc2ccccc32)cc1 (configuration not stated)
EC50 [2]: > 60 µM (not active) | EC50 [3]: 1.26 µM (active)

O=C(c1cccc([N+](=O)[O-])c1)N1CCc2ccccc21
EC50 [4]: > 195 µM (not active)

Cc1cccc(C)c1NC(=O)N1C(C(=O)O)CSC1C(=O)O (configuration not stated)
EC50 [4]: > 195 µM (not active)

COc1cccc(CCNCc2cccc(C(F)(F)F)c2)c1
EC50 [2]: > 30 µM (not active) | EC50 [3]: 0.97 µM (active)

CCOC(=O)C1=C(N)OC2=C(C(=O)CC(C)(C)C2)C1c1ccccc1OCC#N (configuration not stated)
EC50 [4]: > 195 µM (not active)

CC12CCC(C(=O)N3CCN(C(c4ccccc4)c4ccccc4)CC3)(OC1=O)C2(C)C (configuration not stated)
EC50 [2]: > 60 µM (inconclusive) | EC50 [3]: 1.56 µM (active)

Cc1onc(-c2c(Cl)cccc2Cl)c1C(=O)NC1C(=O)N2C1SC(C)(C)C2C(=O)O (configuration not stated)
EC50 [1]: < 0.06 µM (active) | EC50 (Streptococcus): < 0.06 µM (active)

NC(=O)COC(=O)c1cc(O)nc2ccccc12
EC50 [4]: > 195 µM (not active)

CCN(CC)c1ccc(NC(=O)c2ccc3c(c2)OCO3)cc1
IC50 [5]: 52.9 µM (active)

CCN(CC)CCCNC(=O)C1CCC(CNS(=O)(=O)c2ccc(Cl)cc2)CC1 (configuration not stated)
EC50 [4]: > 195 µM (not active)

CSc1ccccc1NC(=O)CNCCCN1CCOCC1
IC50 [5]: 81.9 µM (active)

COc1cc(NC(=O)c2ccco2)c(OC)cc1NC(=O)Nc1cccc(Cl)c1
EC50 [2]: > 60 µM (not active) | EC50 [3]: 1.79 µM (active)

CC(=O)N(C)C1=C(O)C(=O)c2ccccc2C1=O
EC50 [4]: > 195 µM (not active)

c1cc2c(cc1CN1CCN(C3CCCCCC3)CC1)OCO2
IC50 [5]: 91.9 µM (active)

CC(=O)Nc1cc(C(=O)N(C)Cc2ccco2)ccc1Sc1ccc(C)cc1
EC50 [4]: > 195 µM (not active)

Cc1nn(Cc2ccccc2Cl)c2sc(C(=O)Nc3ccccc3N3CCOCC3)cc12
EC50 [1]: 45.4 µM (active) | EC50 (Streptococcus): > 150 µM (not active) | EC50 (Streptokinase A): > 150 µM (not active)

CSCc1nnc2n1-c1ccc(Cl)cc1C(c1ccccc1)=NC2
EC50 [4]: > 195 µM (not active)

CCn1c(COc2ccc(C)cc2)nnc1SCC(=O)Nc1ccc2c(c1)OCCO2
EC50 [4]: > 195 µM (not active)

CCCn1c(NC(=O)c2ccccc2Br)nc2ccccc21
EC50 [1]: 10.2 µM (active) | EC50 (Streptococcus): 30.5 µM (active) | EC50 (Streptokinase A): > 150 µM (not active)

COc1ccc(C2CC(c3cccs3)=NN2C(=O)c2ccc(Br)o2)cc1 (configuration not stated)
EC50 [1]: 6.42 µM (active) | EC50 (Streptococcus): 27.4 µM (active) | EC50 (Streptokinase A): > 150 µM (not active)

COc1ccc(N2CCN(C(=O)CCCN3C(=O)c4cccc5cccc(c45)C3=O)CC2)cc1
EC50 [2]: > 60 µM (inconclusive) | EC50 [3]: 2.45 µM (active)

O=[N+]([O-])c1ccc(OCCN2CCNCC2)cc1
EC50 [2]: > 60 µM (not active) | EC50 [3]: 0.132 µM (active)

Cc1ccccc1OCCC(=O)Nc1ccc(S(=O)(=O)N(C)C2CCN(C)CC2)cc1
EC50 [2]: > 30 µM (not active) | EC50 [3]: 0.324 µM (active)

CCc1cccc(CC)c1N=C(S)N1CCn2cccc2C1c1cccnc1 (configuration not stated)
EC50 [4]: > 195 µM (not active)

COc1ccccc1C(O)(C(=O)N(NC(C)=O)c1ccccc1)c1ccccc1OC
EC50 [4]: > 195 µM (not active)

CC1CN(CCOCCOc2ccccc2-c2ccccc2)CC(C)O1 (configuration not stated)
IC50 [5]: 87.5 µM (active)

COc1cc2c(cc1NC(=S)Nc1cccc3ccccc13)oc1ccccc12
IC50 [5]: 70.2 µM (active)

CCCCCCCCN1[C@@H](CC(=O)OCC)c2ccc(C(F)(F)F)cc2S1(=O)=O
EC50 [2]: 37.8 µM (active) | EC50 [3]: 0.87 µM (active)

O=C1[C@H]2[C@@H](c3ccc(Cl)cc3)N3C(=O)N(c4cccc(F)c4)C(=O)[C@@]3(Cc3ccc(Cl)cc3)[C@H]2C(=O)N1C1CCCCC1
EC50 [2]: > 30 µM (not active) | EC50 [3]: 1.21 µM (active)

CCC(N=C(S)NCc1ccccc1)C(=O)O (configuration not stated)
EC50 [4]: > 195 µM (not active)

O=C(CN1CCN(Cc2ccccc2)CC1)Nc1ccc(F)c(F)c1
IC50 [5]: 73.9 µM (active)

CCN1CCN(CC(=O)Nc2nc3ccc(OC)cc3s2)CC1
IC50 [5]: 74.3 µM (active)

Cc1cccc(NC(S)=NC(NC(=O)OCc2ccccc2)C(Cl)(Cl)Cl)c1 (configuration not stated)
EC50 [2]: > 60 µM (not active) | EC50 [3]: 3.39 µM (active)

O=S(=O)(c1ccc2ccccc2c1)N1CCN(C2CCN(Cc3ccccc3)CC2)CC1
IC50 [5]: 108 µM (active)

CN1CCN(c2ccc([N+](=O)[O-])c(N3CCCCC3)c2)CC1
EC50 [2]: > 30 µM (not active) | EC50 [3]: 0.661 µM (active)

CC/C(=N\c1ccc(N)cc1)C1=C(O)C(C(=O)OC)C(C)(C)CC1=O (configuration not stated)
IC50 [5]: 6.8 µM (active)

COc1ccc(NC(=O)CNCc2cccs2)c(OC)c1
IC50 [5]: 284 µM (active)

CCCCNC(=O)C(c1ccc(OCC(=O)OC)c(C(=O)OC)c1)N(CCc1c[nH]c2ccccc12)C(=O)CCCCCN1C(=O)NC(c2ccc(-c3ccccc3)cc2)C(C(=O)OCc2ccccc2)=C1C (configuration not stated)
EC50 [4]: > 195 µM (not active)

C=CCc1c(C)nc(-c2ccccc2)nc1N/N=C/c1ccncc1
EC50 [2]: 6.59 µM (active) | EC50 [3]: 0.941 µM (active)

CN1CCN(/C=N/C2=NN(c3cccc(C(F)(F)F)c3)CC2)CC1
IC50 [5]: 33.9 µM (active)

Cc1ccc(S(=O)(=O)N2CCN(CC(=O)N/N=C\c3ccncc3)CC2)cc1
EC50 [4]: > 195 µM (not active)

CC/C(=N\NS(=O)(=O)c1ccc(C)cc1)c1ccco1
EC50 [4]: > 195 µM (not active)

CCCOc1ccc(CC(=O)N/N=C\c2ccc(F)cc2)cc1
EC50 [4]: > 195 µM (not active)

CC(O/N=C\c1ccccc1O)C(=O)Nc1ccccc1C(=O)N1CCOCC1 (configuration not stated)
EC50 [4]: > 195 µM (not active)

O=C1c2ccccc2C2=Nc3ccccc3SC(c3cccc(F)c3)C12 (configuration not stated)
EC50 [2]: > 60 µM (not active) | EC50 [3]: 1.27 µM (active)

CCN1CCN(C(=O)N[C@@H](C(=O)N[C@@H]2C(=O)N3[C@@H]2SC(C)(C)[C@@H]3C(=O)O)c2ccccc2)C(=O)C1=O [PIPERACILLIN SODIUM]
EC50 [1]: 0.361 µM (active) | EC50 (Streptococcus): 0.746 µM (active)

— ChEMBL document CHEMBL1201862, “PubChem BioAssay data set” (2004)
